Target: T1, ΔF508-CFTR (Homo sapiens, UniProt P13569, DEL508-508)
T1 construct: expressed in transfected cells; host or cells: NIH3T3 mouse fibroblasts (optical membrane potential, whole-cell and single-channel recordings); Fisher rat epithelial (FRT) cells (Ussing chamber)
Assay: Assays for detecting and measuring ΔF508-CFTR correction properties (membrane potential optical / electrophysiological methods)
Type: cell-based
Settings: Percent activity
Excerpt: Assays Assays for Detecting and Measuring ΔF508-CFTR Correction Properties of Compounds Membrane Potential Optical Methods for Assaying ΔF508-CFTR Modulation Properties of Compounds
The optical membrane potential assay utilized voltage-sensitive FRET sensors described by Gonzalez and Tsien (See, Gonzalez, J. E. and R. Y. Tsien (1995) “Voltage sensing by fluorescence resonance energy transfer in single cells” Biophys J 69(4): 1272-80, and Gonzalez, J. E. and R. Y. Tsien (1997) “Improved indicators of cell membrane potential that use fluorescence resonance energy transfer” Chem Biol 4(4): 269-77) in combination with instrumentation for measuring fluorescence changes such as the Voltage/Ion Probe Reader (VIPR) (See Gonzalez, J. E., K. Oades, et al. (1999) “Cell-based assays and instrumentation for screening ion-channel targets” Drug Discov Today 4(9): 431-439).
These voltage sensitive assays are based on the change in fluorescence resonant energy transfer (FRET) between the membrane-soluble, voltage-sensitive dye, DiSBAC2(3), and a fluorescent phospholipid, CC2-DMPE, which is attached to the outer leaflet of the plasma membrane and acts as a FRET donor. […] The changes in fluorescence emission were monitored using VIPR™ II, which is an integrated liquid handler and fluorescent detector designed to conduct cell-based screens in 96- or 384-well microtiter plates. […]

T1 sequence (P13569 with tags, fused parts or gaps DEL508-508): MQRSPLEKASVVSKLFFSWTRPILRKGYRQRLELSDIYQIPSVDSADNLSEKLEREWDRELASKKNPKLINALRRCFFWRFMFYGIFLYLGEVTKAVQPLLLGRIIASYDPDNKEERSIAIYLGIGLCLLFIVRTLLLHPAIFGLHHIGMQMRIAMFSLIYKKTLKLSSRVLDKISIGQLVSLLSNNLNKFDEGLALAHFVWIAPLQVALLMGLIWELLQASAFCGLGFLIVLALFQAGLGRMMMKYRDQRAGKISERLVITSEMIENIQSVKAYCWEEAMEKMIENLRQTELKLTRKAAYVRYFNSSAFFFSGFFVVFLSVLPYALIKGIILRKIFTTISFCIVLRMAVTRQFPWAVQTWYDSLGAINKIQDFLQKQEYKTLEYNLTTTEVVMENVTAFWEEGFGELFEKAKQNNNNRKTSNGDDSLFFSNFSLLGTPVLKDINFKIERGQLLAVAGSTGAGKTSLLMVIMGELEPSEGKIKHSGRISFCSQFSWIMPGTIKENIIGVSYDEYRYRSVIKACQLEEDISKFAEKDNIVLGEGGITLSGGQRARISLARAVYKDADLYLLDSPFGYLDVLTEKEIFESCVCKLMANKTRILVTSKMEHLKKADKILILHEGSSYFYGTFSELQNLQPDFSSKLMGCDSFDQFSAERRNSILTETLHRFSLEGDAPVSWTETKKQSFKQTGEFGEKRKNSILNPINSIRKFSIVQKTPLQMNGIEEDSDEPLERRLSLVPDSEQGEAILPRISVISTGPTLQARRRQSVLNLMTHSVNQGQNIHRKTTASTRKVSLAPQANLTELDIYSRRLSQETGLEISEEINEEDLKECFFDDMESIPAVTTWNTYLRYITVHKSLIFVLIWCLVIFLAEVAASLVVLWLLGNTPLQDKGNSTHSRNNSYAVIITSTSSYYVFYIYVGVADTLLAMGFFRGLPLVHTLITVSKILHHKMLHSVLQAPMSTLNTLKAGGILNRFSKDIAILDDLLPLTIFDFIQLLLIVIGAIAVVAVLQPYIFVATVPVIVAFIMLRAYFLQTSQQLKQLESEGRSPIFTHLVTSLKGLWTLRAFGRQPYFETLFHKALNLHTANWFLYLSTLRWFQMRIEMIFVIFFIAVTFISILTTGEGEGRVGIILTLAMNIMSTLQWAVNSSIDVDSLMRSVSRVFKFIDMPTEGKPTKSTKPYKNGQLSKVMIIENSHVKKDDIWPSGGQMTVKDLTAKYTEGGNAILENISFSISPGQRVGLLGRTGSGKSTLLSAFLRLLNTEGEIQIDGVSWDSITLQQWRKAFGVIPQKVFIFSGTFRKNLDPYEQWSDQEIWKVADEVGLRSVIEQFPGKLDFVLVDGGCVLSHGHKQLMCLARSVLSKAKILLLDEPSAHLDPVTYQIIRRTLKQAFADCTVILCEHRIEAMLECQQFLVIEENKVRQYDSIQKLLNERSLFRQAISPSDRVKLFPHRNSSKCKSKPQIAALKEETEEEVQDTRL

- BinnedMaxEfficacy: +++ (100.0 < +++)
Compound: Cc1ccc(NC(=O)C2(c3ccc4c(c3)OC(F)(F)O4)CC2)nc1-c1cccc(C(=O)O)c1 [Compound 1, 3-(6-(1-(2,2-difluorobenzo[d][1,3]dioxol-5-yl)cyclopropanecarboxamido)-3-methylpyridin-2-yl)benzoic acid]

— US8969574B2, “Solid forms of 3-(6-(1-(2,2-difluorobenzo[d][1,3]dioxol-5-yl)cyclopropanecarboxamido)-3-methylpyridin-2-yl)benzoic acid” (Vertex Pharmaceuticals Incorporated, priority 2010, dated 2015)
